Laboratory results reported in patent US9884818B2, “Sulphamoylpyrrolamide derivatives and the use thereof as medicaments for the treatment of hepatitis B” (Janssen Sciences Ireland UC, priority 2013, dated 2018).

How the values were obtained:
HBV = assay: Anti-HBV activity, HepG2.117 inducibly HBV producing cell line (Tet-off), intracellular HBV DNA by realtime PCR; type: cell-based; conditions: Hepatitis B virus, HepG2.117, 72 h, HepG2.117 cells, 3 days of treatment, intracellular HBV DNA; read-out: HepG2 117 EC50
[1] = Cytotoxicity in HepG2 cells, Resazurin viability assay; conditions: human, HepG2 cells, HepG2 4 days CC50 (μM), incubated for 4 days, Resazurin assay

Row | Structure (SMILES) | EC50 (HBV) | CC50 at 4 days [1]
1 | C[C@@H](NS(=O)(=O)c1cn(C)c(C(=O)Nc2ccc(F)c(C#N)c2)c1Br)C(F)(F)F [Compound 292, 3-bromo-N-(3-cyano-4-fluoro-phenyl)-1-methyl-4-[[(1R)-2,2,2-trifluoro-1-methyl-ethyl]sulfamoyl]pyrrole-2-carboxamide] | 0.03 µM | 15.5 µM
2 | C[C@H](NS(=O)(=O)c1cn(C)c(C(=O)Nc2ccc(F)c(C#N)c2)c1F)C(C)(F)F [Compound 318, N-(3-cyano-4-fluoro-phenyl)-4-[[(1S)-2,2-difluoro-1-methyl-propyl]sulfamoyl]-3-fluoro-1-methyl-pyrrole-2-carboxamide] | 0.019 µM | > 25 µM
3 | C=Cc1c(S(=O)(=O)N[C@H](C)C(F)(F)F)c(F)c(C(=O)Nc2ccc(F)c(C#N)c2)n1C [Compound 311, N-(3-cyano-4-fluoro-phenyl)-3-fluoro-1-methyl-4-[[(1R)-2,2,2-trifluoro-1-methyl-ethyl]sulfamoyl]-5-vinyl-pyrrole-2-carboxamide] | 0.06 µM | > 25 µM
4 | Cn1cc(S(=O)(=O)NC2(C)COC2)c(F)c1C(=O)Nc1ccc(F)c(Cl)c1 [Compound 108, N-(3-Chloro-4-fluorophenyl)-3-fluoro-1-methyl-4-[(3-methyloxetan-3-yl)sulfamoyl]-1H-pyrrole-2-carboxamide] | 0.01 µM | > 25 µM
5 | CC(C)c1c(S(=O)(=O)N[C@H](C)C(F)(F)F)cn(C)c1C(=O)Nc1ccc(F)c(C#N)c1 [Compound 303, N-(3-cyano-4-fluoro-phenyl)-3-isopropyl-1-methyl-4-[[(1R)-2,2,2-trifluoro-1-methyl-ethyl]sulfamoyl]pyrrole-2-carboxamide] | > 12.5 µM | > 25 µM
6 | C[C@@H](NS(=O)(=O)c1c(F)c(C(=O)Nc2ccc(F)c(C#N)c2)n(C)c1C1CC1)C(F)(F)F [Compound 304, N-(3-cyano-4-fluoro-phenyl)-5-cyclopropyl-3-fluoro-1-methyl-4-[[(1R)-2,2,2-trifluoro-1-methyl-ethyl]-sulfamoyl]-pyrrole-2-carboxamide] | 0.01 µM | > 25 µM
7 | C[C@@H](NS(=O)(=O)c1c(F)c(C(=O)Nc2ccc(F)c(C#N)c2F)n(C)c1Cl)C(F)(F)F [Compound 314, 5-chloro-N-(3-cyano-2,4-difluoro-phenyl)-3-fluoro-1-methyl-4-[[(1R)-2,2,2-trifluoro-1-methyl-ethyl]sulfamoyl]pyrrole-2-carboxamide] | 0.007 µM | > 25 µM
8 | C[C@@H](NS(=O)(=O)c1c(F)c(C(=O)Nc2ccc(F)c(C#N)c2)n(C)c1Br)C(F)(F)F [Compound 301, 5-bromo-N-(3-cyano-4-fluoro-phenyl)-3-fluoro-1-methyl-4-[[(1R)-2,2,2-trifluoro-1-methyl-ethyl]sulfamoyl]pyrrole-2-carboxamide] | 0.007 µM | > 25 µM
9 | Cc1cc(NC(=O)c2c(Br)c(S(=O)(=O)N[C@H](C)C(F)(F)F)cn2C)ccc1F [Compound 308, 3-bromo-N-(4-fluoro-3-methyl-phenyl)-1-methyl-4-[[(1R)-2,2,2-trifluoro-1-methyl-ethyl]sulfamoyl]pyrrole-2-carboxamide] | 0.01 µM | > 25 µM
10 | Cn1cc(S(=O)(=O)NC2(C(F)(F)F)CCC2)c(F)c1C(=O)Nc1ccc(F)c(C#N)c1 [Compound 319, N-(3-cyano-4-fluoro-phenyl)-3-fluoro-1-methyl-4-[[1-(trifluoromethyl)cyclobutyl]sulfamoyl]pyrrole-2-carboxamide] | < 0.004 µM | > 25 µM
11 | C[C@@H](NS(=O)(=O)c1c(F)c(C(=O)Nc2ccc(F)c(C#N)c2F)n(C)c1Br)C(F)(F)F [Compound 315, 5-bromo-N-(3-cyano-2,4-difluoro-phenyl)-3-fluoro-1-methyl-4-[[(1R)-2,2,2-trifluoro-1-methyl-ethyl]sulfamoyl]pyrrole-2-carboxamide] | 0.007 µM | > 25 µM
12 | C[C@@H](NS(=O)(=O)c1cn(C)c(C(=O)Nc2ccc(F)c(C(F)F)c2)c1F)C(F)(F)F [Compound 286, N-[3-(difluoromethyl)-4-fluoro-phenyl]-3-fluoro-1-methyl-4-[[(1R)-2,2,2-trifluoro-1-methyl-ethyl]sulfamoyl]pyrrole-2-carboxamide] | 0.005 µM | 21.9 µM
13 | Cc1cc(NC(=O)c2cc(S(=O)(=O)NC(C)(C)C(=O)O)cn2C)ccc1F [Compound 61, 2-[[5-[(4-fluoro-3-methyl-phenyl)carbamoyl]-1-methyl-pyrrol-3-yl]-sulfonylamino]-2-methyl-propanoic acid] | > 1 µM | > 25 µM
14 | C[C@@H](NS(=O)(=O)c1cn(C)c(C(=O)Nc2ccc(F)cc2)c1F)C(F)(F)F [Compound 285, 3-fluoro-N-(4-fluorophenyl)-1-methyl-4-[[(1R)-2,2,2-trifluoro-1-methyl-ethyl]sulfamoyl]pyrrole-2-carboxamide] | 0.007 µM | > 25 µM
15 | Cn1cc(S(=O)(=O)NC2CCCC2)c(Cl)c1C(=O)Nc1ccc(F)c(C#N)c1 [Compound 307, 3-chloro-N-(3-cyano-4-fluoro-phenyl)-4-(cyclopentylsulfamoyl)-1-methyl-pyrrole-2-carboxamide] | 0.03 µM | > 25 µM
16 | COCC(C)(NS(=O)(=O)c1cc(C(=O)Nc2cc(F)c(F)c(Cl)c2)n(C)c1)C(F)(F)F (stereo not drawn) [Compound 73, N-(3-chloro-4,5-difluoro-phenyl)-1-methyl-4-[[2,2,2-trifluoro-1-(methoxymethyl)-1-methyl-ethyl]sulfamoyl]pyrrole-2-carboxamide] | 0.1 µM | 14.1 µM
17 | Cc1c(S(=O)(=O)N[C@H](C)C(F)(F)F)c(F)c(C(=O)Nc2ccc(F)c(C#N)c2)n1C [Compound 299, N-(3-cyano-4-fluoro-phenyl)-3-fluoro-1,5-dimethyl-4-[[(1R)-2,2,2-trifluoro-1-methyl-ethyl]sulfamoyl]pyrrole-2-carboxamide] | 0.009 µM | > 25 µM
18 | CC[C@@H](NS(=O)(=O)c1cn(C)c(C(=O)Nc2ccc(F)c(C#N)c2)c1Cl)C(F)(F)F [Compound 290, 3-chloro-N-(3-cyano-4-fluoro-phenyl)-1-methyl-4-[[(1R)-1-(trifluoro-methyl)propyl]sulfamoyl]pyrrole-2-carboxamide] | 0.02 µM | > 25 µM
19 | CC[C@H](NS(=O)(=O)c1cn(C)c(C(=O)Nc2ccc(F)c(C#N)c2)c1F)C(F)(F)F [Compound 284, N-(3-cyano-4-fluoro-phenyl)-3-fluoro-1-methyl-4-[[(1S)-1-(trifluoro-methyl)propyl]sulfamoyl]pyrrole-2-carboxamide] | 0.009 µM | > 25 µM
20 | C[C@@H](NS(=O)(=O)c1c(Cl)c(C(=O)Nc2ccc(F)c(C#N)c2)n(C)c1Br)C(F)(F)F [Compound 300, 5-bromo-3-chloro-N-(3-cyano-4-fluoro-phenyl)-1-methyl-4-[[(1R)-2,2,2-trifluoro-1-methyl-ethyl]sulfamoyl]pyrrole-2-carboxamide] | 0.008 µM | 14.2 µM
21 | C[C@@H](NS(=O)(=O)c1cn(C)c(C(=O)Nc2ccc(F)c(C#N)c2)c1F)C(C)(F)F [Compound 317, N-(3-cyano-4-fluoro-phenyl)-4-[[(1R)-2,2-difluoro-1-methyl-propyl]sulfamoyl]-3-fluoro-1-methyl-pyrrole-2-carboxamide] | 0.006 µM | > 25 µM
